The results in this text go back to patent publication US9512095B2, “Polymorph forms of desazadesferrithiocin analogs” (Ferrokin Biosciences, Inc., priority 2013, dated 2016).

The structures appear in SMILES notation. Entries after “also recorded” stand apart in the source; their conditions may differ.

The nature of data set [1]: Human pharmacokinetics: open-label, randomized relative bioavailability study of Compounds 1 and 3 (plasma total, unbound and iron bound Compound 2). The class given is in vivo. The following applies: healthy adults, oral capsules; plasma Compound 2; relative to Compound 3, see Table 14. The method, then: The purpose of this Example is to characterize the pharmacokinetic profiles of Compound 1 (disodium salt) and its magnesium hydroxide salt counterpart, Compound 3:
This human study is part of an open-label, randomized, single dose, 3-period, relative bioavailability study in up to 28 healthy adults 18-65 years of age inclusive, investigating the pharmacokinetics, safety, and tolerability of Compounds 1 and 3. In this study, each study compound is administered as a single dose of 36.2 mg/kg/day or 18.1 mg/kg/day, respectively (as free acid), and as 2 doses of 36.2 mg/kg or 18.1 mg/kg, respectively (as free acid), given 12 hours apart. Table 13 provides dosages relative to free acid content.
The magnesium hydroxide salt (Compound 3) is administered as oral capsules in the following strengths: 50, 100, 200, 375 and 500 mg. The disodium salt (Compound 1) is administered as oral capsules in the following strengths: 54.1, 272.8 and 408.7 mg.
There will be 3 treatment periods in this study and 4 possible treatments. […]
Actual pharmacokinetic blood sample collection times versus time of dosing will be monitored. […]

The nature of data set [2]: Drying of Form A under vacuum at elevated temperature (weight loss, XRPD, HPLC/1H NMR). It is filed as physicochemical. The method, then:
Form A (1.0 g) was dried at 60° C. under reduced pressure for 24 h. During this time the sample decreased in weight by −7.3% w/w.
A sample of Form A was dried for 48 h under vacuum at 60° C. and reweighed. The material decreased in weight by 9.30% w/w.
The reactions conditions were repeated on a 1.0 g scale: a sample of Form A was dried for 24 hr under vacuum at 60° C. and reweighed. The material decreased in weight by 7.30% w/w. […] The material was allowed to cool to ambient temperature under vacuum before releasing the vacuum with nitrogen and transferring the Form D into a poly-tub under nitrogen.

A short description of data set [3]: Form inter-conversion by stirring in TBME/ethanol/water (20/5/1, v/v/v). It is filed as physicochemical. The conditions noted are these: TBME/ethanol/water (20/5/1, v/v/v) at 18-23° C. for 4 days. The procedure:
A mixture of Forms A, B, C, and D (present in equal amounts) of Compound 1 was stirred in TBME/ethanol/water (20/5/1, v/v/v) at 18-23° C. for 4 days.
A reaction vessel was charged with a mixture of Forms A-D of Compound 1 (25 mg, 1.0 wt.). A solution of TBME/EtOH/water (20/5/1, 10 vol) was added, and was stirred at 18-23° C. for 4 days. The solid was isolated by filtration, washed with recycled mother liquors, and dried under vacuum under a N2 atmosphere.
A reaction vessel was charged with Form A of Compound 1 (25 mg, 1.0 wt.). A solution of TBME/EtOH/water (20/5/1, 10 vol) was added, and was stirred at 18-23° C. for 4 days. The solid was isolated by filtration, washed with recycled mother liquors, and dried under vacuum under a N2 atmosphere.
A reaction vessel was charged with Form B of Compound 1 (25 mg, 1.0 wt.). A solution of TBME/EtOH/water (20/5/1, 10 vol) was added, and was stirred at 18-23° C. for 4 days. The solid was isolated by filtration, washed with recycled mother liquors, and dried under vacuum under a N2 atmosphere.
A reaction vessel was charged with Form C of Compound 1 (25 mg, 1.0 wt.). A solution of TBME/EtOH/water (20/5/1, 10 vol) was added, and was stirred at 18-23° C. for 4 days. The solid was isolated by filtration, washed with recycled mother liquors, and dried under vacuum under a N2 atmosphere.
A reaction vessel was charged with Form D of Compound 1 (25 mg, 1.0 wt.). A solution of TBME/EtOH/water (20/5/1, 10 vol) was added, and was stirred at 18-23° C. for 4 days. The solid was isolated by filtration, washed with recycled mother liquors, and dried under vacuum under a N2 atmosphere.

A short description of data set [4]: Humidity exposure / comparative hygroscopicity study of solid forms (weight change, appearance, XRPD). The class given is physicochemical.
Assay in data set [5]: as above
The conditions noted are these: for XRPD form: 48 hrs; for XRPD (final form): 18-23° C., 48 h. The class given is physicochemical. The method, then: X-Ray powder diffraction (XRPD) analysis was carried out using a Bruker D2 Phaser powder diffractometer employing a LynxEye detector. The samples underwent minimum preparation but, if necessary they were milled in a pestle and mortar before acquisition.
The samples were continuously spun during data collection and scanned using a step size of 0.02° two theta (2θ) between the range of 4°-40° two theta and a count time of 10 seconds per step. Data was processed using Bruker Diffrac. Suite.
Samples of Form D were placed in humidity chambers at 45%, 60% and 75% RH at 18-23° C. and their weight changes were monitored at intervals up to 48 h.
Accurately weighed samples of Form D were placed in humidity chambers at 45%, 60% and 75% R.H. and monitored for weight changes over 48 h.

The mark [6] stands for this setting: 75% relative humidity (RH) at 15-25° C. for 1-2 days.

For the molecule `COCCOCCOCCOc1cccc(C2=N[C@@](C)(C(=O)[O-])CS2)c1[O-].[Na+].[Na+]` [Compound 1, (S)-2-(2-hydroxy-3-(2-(2-(2-methoxyethoxy)ethoxy)ethoxy)phenyl)-4-methyl-4,5-dihydrothiazole-4-carboxylate disodium], in data set [1], the “AUC higher than Compound 3” value is recorded as approximately 22% and the “Cmax higher than Compound 3” value is approximately 35%.
Turning to `COCCOCCOCCOc1cccc(C2=N[C@@](C)(C(=O)[O-])CS2)c1[O-].[Na+].[Na+]` [Form A, (S)-2-(2-hydroxy-3-(2-(2-(2-methoxyethoxy)ethoxy)ethoxy)phenyl)-4-methyl-4,5-dihydrothiazole-4-carboxylate disodium Form A polymorph], in data set [2] (40° C. under vacuum for 48 h), the Form after drying result is “partial transformation of Form A to Form D”. Further, in data set [2] (60° C. under vacuum for 24 hours), the Form after drying entry is listed as “converted to Form D; also recorded: converted into Form D”. Further, in data set [2] (60° C. under vacuum for 48 h), the “Chemical stability on drying (HPLC and 1H NMR)” value is on record as “decomposition had not occurred”; the “Decrease in weight on drying” value is 9.30 % w/w; the “Form after drying (XRPD)” value was “Form D”. The “Output form after stirring in solvent” value in data set [3] was “remained Form A”. The “Form after exposure to humidity” value in data set [4] (43% RH at 50° C. for 5 days) is on record as “remained as Form A”. In addition, the “Form after exposure to humidity” value in data set [4] (setting [6]) is on record as “remained as Form A”.
As for `COCCOCCOCCOc1cccc(C2=N[C@@](C)(C(=O)[O-])CS2)c1[O-].[Na+].[Na+]` [Form B, (S)-2-(2-hydroxy-3-(2-(2-(2-methoxyethoxy)ethoxy)ethoxy)phenyl)-4-methyl-4,5-dihydrothiazole-4-carboxylate disodium Form B polymorph], the “Output form after stirring in solvent” value in data set [3] is given as “converted into Form A”. For the same molecule, in data set [4] (setting [6]), the “Form after exposure to humidity” value was “re-generated Form A”.
Turning to `COCCOCCOCCOc1cccc(C2=N[C@@](C)(C(=O)[O-])CS2)c1[O-].[Na+].[Na+]` [Form C, (S)-2-(2-hydroxy-3-(2-(2-(2-methoxyethoxy)ethoxy)ethoxy)phenyl)-4-methyl-4,5-dihydrothiazole-4-carboxylate disodium Form C polymorph], the “Output form after stirring in solvent” value in data set [3] is “converted into Form A”. Besides, in data set [4] (75% RH at 15-25° C. for 22 h), the “Form after exposure to humidity” value is reported as “re-generated Form A” and the “Weight gain on exposure to humidity” value came out at 18.5 % w/w.
As to `COCCOCCOCCOc1cccc(C2=N[C@@](C)(C(=O)[O-])CS2)c1[O-].[Na+].[Na+]` [Form D, (S)-2-(2-hydroxy-3-(2-(2-(2-methoxyethoxy)ethoxy)ethoxy)phenyl)-4-methyl-4,5-dihydrothiazole-4-carboxylate disodium Form D polymorph], in data set [3], the “Output form after stirring in solvent” value is given as “converted into Form A”. Also, the “XRPD (final form)” value in data set [4] (43% RH, 18-23° C., 48 h) was “Form A”; in data set [5] (60% RH) it was “Form A”; in data set [5] (75% RH) it was “Form A”. Further, the XRPD form result in data set [5] (45% R.H.), in data set [5] (60% R.H.) and in data set [5] (75% R.H.) was “Form A” throughout. The “Form after exposure to humidity” value in data set [5] (exposed to ≧43% relative humidity) was “reverts to Form A”.
